According to ChEMBL document CHEMBL2146478, “Discovery of potent inhibitors of receptor protein tyrosine phosphatase sigma through the structure-based virtual screening” (Bioorg Med Chem Lett, 2012):
pIC50: −log10 of the molar value.

Experiments:
PTPsigma-(Brain) [1] = molecular target: T1, PTPsigma-(Brain) (Homo sapiens, UniProt Q9UM81); test: Inhibition of His-tagged PTPsigma catalytic domain amino acid 1369 to 1948 using DiFMUP as substrate at 2 uM after 20 mins by spectrofluorometric analysis
Target sequence in this assay (Q9UM81 as listed by the source): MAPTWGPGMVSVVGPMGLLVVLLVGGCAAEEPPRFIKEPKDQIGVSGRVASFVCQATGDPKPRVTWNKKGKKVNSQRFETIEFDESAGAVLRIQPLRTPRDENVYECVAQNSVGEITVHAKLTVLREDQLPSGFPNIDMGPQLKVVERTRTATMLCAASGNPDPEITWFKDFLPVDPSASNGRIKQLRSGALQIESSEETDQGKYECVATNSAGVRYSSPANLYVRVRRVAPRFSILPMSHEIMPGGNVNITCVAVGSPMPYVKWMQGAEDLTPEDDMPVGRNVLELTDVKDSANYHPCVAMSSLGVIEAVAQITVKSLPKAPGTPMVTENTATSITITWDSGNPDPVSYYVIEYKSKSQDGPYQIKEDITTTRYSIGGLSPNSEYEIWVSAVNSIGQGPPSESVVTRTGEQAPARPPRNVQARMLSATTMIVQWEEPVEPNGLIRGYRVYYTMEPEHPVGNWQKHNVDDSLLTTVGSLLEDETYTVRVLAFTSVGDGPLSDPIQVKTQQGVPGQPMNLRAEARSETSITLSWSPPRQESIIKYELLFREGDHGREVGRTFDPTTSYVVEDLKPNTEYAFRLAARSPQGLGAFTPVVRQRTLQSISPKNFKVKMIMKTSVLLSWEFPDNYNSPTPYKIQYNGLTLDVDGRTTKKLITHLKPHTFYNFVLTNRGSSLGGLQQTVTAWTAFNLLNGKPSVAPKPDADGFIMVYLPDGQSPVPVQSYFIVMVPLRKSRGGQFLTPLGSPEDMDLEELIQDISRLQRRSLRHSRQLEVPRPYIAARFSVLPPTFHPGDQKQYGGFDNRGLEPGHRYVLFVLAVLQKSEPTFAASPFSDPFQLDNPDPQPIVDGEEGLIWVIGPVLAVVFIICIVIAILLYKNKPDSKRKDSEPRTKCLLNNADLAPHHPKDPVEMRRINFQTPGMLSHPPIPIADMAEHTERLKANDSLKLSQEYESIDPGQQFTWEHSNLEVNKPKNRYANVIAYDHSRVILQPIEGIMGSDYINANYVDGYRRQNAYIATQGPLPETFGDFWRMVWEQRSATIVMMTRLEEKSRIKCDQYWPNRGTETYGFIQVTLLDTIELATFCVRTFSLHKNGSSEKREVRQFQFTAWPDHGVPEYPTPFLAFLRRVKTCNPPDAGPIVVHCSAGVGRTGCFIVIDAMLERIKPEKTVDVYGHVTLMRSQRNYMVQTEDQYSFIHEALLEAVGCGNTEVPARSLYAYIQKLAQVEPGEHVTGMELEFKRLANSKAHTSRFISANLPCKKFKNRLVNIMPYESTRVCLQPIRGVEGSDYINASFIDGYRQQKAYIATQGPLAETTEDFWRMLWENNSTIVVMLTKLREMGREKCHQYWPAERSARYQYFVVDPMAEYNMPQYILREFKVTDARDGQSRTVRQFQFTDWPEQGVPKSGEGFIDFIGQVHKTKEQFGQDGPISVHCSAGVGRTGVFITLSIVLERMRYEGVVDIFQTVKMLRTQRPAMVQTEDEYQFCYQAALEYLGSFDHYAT

PTPsigma-(Brain) [2] = molecular target: T1, PTPsigma-(Brain); test: Inhibition of His-tagged PTPsigma catalytic domain amino acid 1369 to 1948 using DiFMUP as substrate after 20 mins by spectrofluorometric analysis
Target sequence in this assay (Q9UM81 whole entry, the tested form may be a part): as the sequence (Q9UM81 as listed by the source) above

[3] = molecular target: T2, Dual specificity protein phosphatase 4 (Homo sapiens, UniProt Q13115); test: Inhibition of MKP2
T2 sequence (Q13115 whole entry): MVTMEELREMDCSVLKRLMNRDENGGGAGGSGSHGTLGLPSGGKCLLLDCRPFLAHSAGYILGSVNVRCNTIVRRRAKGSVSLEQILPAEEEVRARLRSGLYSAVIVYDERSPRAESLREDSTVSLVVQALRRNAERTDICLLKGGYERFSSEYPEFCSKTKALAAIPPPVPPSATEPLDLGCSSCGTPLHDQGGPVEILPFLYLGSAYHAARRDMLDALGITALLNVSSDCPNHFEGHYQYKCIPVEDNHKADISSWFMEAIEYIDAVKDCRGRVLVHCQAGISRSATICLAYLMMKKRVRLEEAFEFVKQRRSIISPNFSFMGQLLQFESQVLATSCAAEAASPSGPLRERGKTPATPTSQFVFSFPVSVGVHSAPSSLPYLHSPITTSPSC

[4] = molecular target: T3, Protein tyrosine phosphatase type IVA 1 (Homo sapiens, UniProt Q93096); test: Inhibition of PRL1
T3 sequence (Q93096 whole entry): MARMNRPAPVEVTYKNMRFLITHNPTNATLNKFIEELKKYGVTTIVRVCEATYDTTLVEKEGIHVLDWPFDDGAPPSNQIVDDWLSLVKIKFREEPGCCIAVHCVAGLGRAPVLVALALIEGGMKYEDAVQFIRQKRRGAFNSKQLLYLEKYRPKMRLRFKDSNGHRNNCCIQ

[5] = molecular target: Protein tyrosine phosphatase type IVA 3 (Homo sapiens, UniProt O75365); test: Inhibition of PRL3
Chain of Protein tyrosine phosphatase type IVA 3 (O75365 whole entry): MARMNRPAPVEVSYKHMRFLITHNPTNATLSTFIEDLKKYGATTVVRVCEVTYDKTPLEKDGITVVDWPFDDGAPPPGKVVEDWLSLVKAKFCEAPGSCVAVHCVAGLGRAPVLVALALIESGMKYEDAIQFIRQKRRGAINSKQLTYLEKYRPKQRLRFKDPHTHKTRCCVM

Structure (SMILES)	inhibition (PTPsigma-(Brain) [1]) [%]	pIC50 (PTPsigma-(Brain) [2])	pIC50 [3]	pIC50 [4]	pIC50 [5]
O=C1NC(=S)S/C1=C\c1cn(-c2ccccc2)nc1-c1cccc(OCc2ccccc2Cl)c1	> 50	6.22	4.68	4.43	4.56
O=c1/c(=C/c2ccc(O)c(O)c2)sc2nc3ccccc3n12	> 50	6.05	< 4.00	4.85	4.96
N=C1/C(=C\c2ccc(O)c(O)c2)C(=O)N=C2SC(c3ccc(O)cc3)=NN12	> 50	5.92	< 4.00	4.40	4.48

The remaining compounds from weak to strong by pIC50 (PTPsigma-(Brain) [2]), led by results:

inhibition (PTPsigma-(Brain) [1]) [%]	pIC50 (PTPsigma-(Brain) [2])	pIC50 [3]	pIC50 [4]	pIC50 [5]	Structure (SMILES)
> 50	5.89	< 4.00	< 4.00	4.24	O=C(CSc1nnc(-c2ccco2)c(-c2ccco2)n1)Nc1ccccc1[N+](=O)[O-]
> 50	6.15	4.26	< 4.00	< 4.00	CC1=CC2=NC(=O)/C(=C/c3ccc(O)c(O)c3)C(=N)N2O1
> 50	6.70	< 4.00	< 4.00	< 4.00	O=C1NC(=O)/C(=C\c2cccn2-c2ccc(C(=O)O)cc2)N1
> 50	7.00	5.64	4.68	< 4.00	c1ccc2nc(-c3nnc4sc(-c5cnccn5)nn34)ccc2c1
